Experimental data: patent publication US6440980B1, “Synergistic inhibition of viral replication by long-chain hydrocarbons and nucleoside analogs” (Avanir Pharmaceuticals, priority 1996, dated 2002)
Like-named read-outs stand apart in the source and are kept apart here.

Experiments:
[1] = tested on: all cell lines tested; experiment: Cytotoxicity in mammalian cell cultures; details: surfactant suspensions
Text: Three assays were used to quantitate the effects of aliphatic alcohols on cell survival and proliferation: 1) counting cells with a hemocytometer and determining the number of cells that exclude trypan blue; 2) measuring the incorporation of ^3H-thymidine into cellular DNA by adding ^3H-thymidine (from New England Nuclear) to the culture medium, lysing the cells with water and harvesting the DNA onto filter paper; and 3) measuring total cellular protein using a sulforhodamine assay adapted for use in 96-well microtiter plates (Skehan et al., J. Natl. Cancer Inst. […] All of these methods are well known cell viability and cytotoxicity assays.

[2] = tested on: EBV; experiment: Systemic treatment of EBV infection, infectious mononucleosis (Example 14); type: in vivo, human; details: 10 mM n-hexacosanol suspension injected
Experimental: Ten young adults (age 14-19 yr) diagnosed with infectious mononucleosis (sore throat, fever, malaise, generalized lymphadenopathy, atypical mononucleosis T-lymphocytes in peripheral blood, a total white cell count of 12,000-18,000 in the blood) are treated systemically with a sterile aqueous suspension of a nonionic detergent surfactant containing 10 mM n-hexacosanol, prepared essentially as in Example 1. The suspension is injected (intramuscular or intravenous) in dosages of 0.1 mg/kg to 0.02 gm/kg of the aliphatic alcohol administered by a physician under clinical conditions. The symptoms of the individuals are then monitored daily for one week and weekly for three months for indications of infectious mononucleosis. All of the individuals test EBV-positive at the end of the study period as determined by detection of anti-EBV antibodies in their serum using standard immunoassays.

[3] = tested on: HSV-2; experiment: Inhibition of HSV-2 plaque formation in Vero cells; details: for EC50: Human alphaherpesvirus 2, Vero
[4] = tested on: HSV-2; experiment: Topical treatment of HSV-2 in guinea pig model, number of vesicles (Example 9); type: in vivo, hairless guinea pigs; details: mean; for Number of Vesicles Day 2: 48 hr post-inoculation; for Number of Vesicles Day 3: 72 hr post-inoculation; for Number of Vesicles Day 4: 96 hr post-inoculation
[5] = male, hairless, guinea pig, in vivo, 2 day
[6] = tested on: Vero cells; experiment: Cytotoxicity to Vero cells (monolayer integrity, trypan blue exclusion)
[7] = tested on: HSV-2; experiment: Cutaneous HSV-2 model in hairless guinea pigs, combination cream (Example 15); type: in vivo; details: 96 hours post-HSV-2-inoculation; cream two times daily; untreated mean 27 vesicles
[8] = tested on: HSV-1; experiment: HSV-1 PFU production in Vero cell cultures; type: cell-based, HSV-1 (MacIntyre strain)
[9] = tested on: Varicella Zoster Virus (VZV); experiment: VZV infectious center assay in MRC-5 cells; type: cell-based, human varicella zoster virus (Ellen strain); details: for EC50: Human alphaherpesvirus 3, MRC5, read-out: ACV Efficacy EC50 (μM), VZV; for EC90: Human alphaherpesvirus 3, MRC5, read-out: ACV Efficacy EC90 (μM), VZV
[10] = tested on: Cytomegalovirus (CMV); experiment: CMV infectious center assay in MRC-5 cells; type: cell-based, human cytomegalovirus (Towne strain); details: for EC50: Human betaherpesvirus 5, MRC5, read-out: ACV Efficacy EC50 (μM), CMV; for EC90: Human betaherpesvirus 5, MRC5, read-out: ACV Efficacy EC90 (μM), CMV
[11] = tested on: vaccinia virus; experiment: microbe, parasite or virus in culture; type: cell-based, vaccinia virus (WR strain); details: with or without n-docosanol
[12] = tested on: Vero cells
[13] = cited from earlier work
[14] = tested on: HSV-2; experiment: Transmucosal suppository treatment of HSV-2 infection (Example 13); type: in vivo, human; details: 8 mM brassidyl alcohol suppositories
Experimental: Suppositories containing 8 mM brassidyl alcohol in a nonionic detergent suspension, prepared essentially as in Examples 1 and 5, are formulated by adding anhydrous dextrose (300-400 mg/suppository), vegetable starch (300-400 mg/suppository) and magnesium stearate (5-10 mg/suppository) to produce a mixture that is compressed into suppositories (1-10 g per suppository) for vaginal insertion.
Fifteen HSV-2 infected women with past histories of vaginal and/or perivaginal herpes lesions are provided with the suppositories and instructed to use one to four suppositories per day when herpes lesions or discomfort associated with herpes lesions are detected. The women are instructed to record their observations about the duration of the active infection, the severity of the lesions (erythema, papule, vesicle, edema or scab phases), the relative numbers of lesions detected to past occurrences of active infection, and the subjective degrees of pain or discomfort associated with the active infection episode. The women are instructed to use the suppositories as soon as active infection or symptoms of active infection are detected. The women have a past mean of 12 days duration for lesions that develop into vesicles if untreated.

[15] = tested on: HSV-1; experiment: Inhibition of HSV-1 plaque formation in Vero cells (brassidyl alcohol, TETRONIC-908 suspension); details: Human alphaherpesvirus 1, Vero, read-out: Percent Inhibition of Plaque Formation

Q: For `CCCCCCCCCCCCCCCCCCCCCCCCCCO` [n-hexacosanol], which “cytotoxicity of the suspensions (in words)” value [1] is on record?
A: same minimal level of cytotoxicity

Q: What about the “time to decrease in atypical mononucleosis T-lymphocytes in peripheral blood” value [2] of the same compound?
A: four

Q: What about the EC50 ([3]; read-out: 50% Inhibition Concentration (mM)) of the same compound?
A: 8.4 mM

Q: For `CCCCCCCCCCCCCCCCCC(=O)O` [stearic acid], which “Number of Vesicles Day 2” value ([4]; 10% w/w cream topically 3X/day from 24 hr post-inoculation) is on record?
A: 49

Q: What about the “Number of Vesicles Day 3” value ([4]; 10% w/w cream topically 3X/day) of the same compound?
A: 17

Q: And the “Number of Vesicles Day 4” value ([4]; 10% w/w cream topically 3X/day)?
A: 11

Q: And the “Number of Vesicles Day 2” value ([4]; 10% w/w cream topically 5X/day)?
A: 49

Q: What about the “Number of Vesicles Day 3” value ([4]; 10% w/w cream topically 5X/day) of the same compound?
A: 13

Q: What about the “Number of Vesicles Day 4” value ([4]; 10% w/w cream topically 5X/day) of the same compound?
A: 5

Q: And the “Irritation Score Day 2” value [5]?
A: 0

Q: What about the “inhibition of HSV-2 plaque formation relative to infected control cell cultures” value ([3]; 11 μM and 22 μM in TETRONIC 908, 3.5 μM in ethanol) of the same compound?
A: less than 10%

Q: And the “cytotoxicity by microscopic examination” value ([6]; 11 μM and 22 μM suspensions in TETRONIC 908 and 3.5 μM solution in ethanol)?
A: No apparent toxicity

Q: And the “cytotoxicity by microscopic examination” value ([6]; 44 μM TETRONIC 908 suspension and 35 μM ethanol solution)?
A: Moderate toxicity

Q: And the “cytotoxicity by microscopic examination” value ([6]; suspensions and solutions of 88 μM to 350 μM)?
A: toxic

Q: Which results are given for `Nc1nc2c(ncn2COCCO)c(=O)[nH]1` [ACV, 9-(2-hydroxy)-ethoxymethyl-guanine]?
A: reduction of mean vesicle numbers [7]: 50%; lowering of the ACV EC90 ([8]; 3.3 mM n-docosanol): 17 fold; reduction of the ACV EC90 ([8]; 10 mM n-docosanol): 40 fold; reduction of EC90 by n-docosanol ([8]; 15 mM n-docosanol): 21 fold; EC90 ([8]; 15 mM n-docosanol, 500 PFU/culture, three days, read-out: EC90 for inhibition of HSV-1 PFU production in the presence of n-docosanol): 0.9 µM; EC90 ([8]; Human alphaherpesvirus 1, Vero, 72 h, control cultures without n-docosanol, 500 PFU/culture, three days, read-out: EC90 for inhibition of HSV-1 PFU production, drug used alone): 19 µM; EC90 ([8]; Human alphaherpesvirus 1, Vero, read-out: ACV EC90 for inhibition of HSV-1 production, 30 mM n-docosanol): < 0.1 µM; EC90 ([8]; Human alphaherpesvirus 1, Vero, read-out: ACV EC90 for inhibition of HSV-1 production, medium only or medium plus PLURONIC F-68, 500 PFU per culture, 72 hours): 10 µM; EC50 ([9]; Medium Only): 3 µM; EC50 ([9]; with Pluronic F-68): 3 µM; EC50 ([9]; with n-Docosanol, 3.3 mM): 1 µM; EC50 ([9]; with n-Docosanol, 10 mM): 0.6 µM; EC50 ([9]; with n-Docosanol, 30 mM): 0.3 µM; EC90 ([9]; Medium Only): 10 µM; EC90 ([9]; with Pluronic F-68): 10 µM; EC90 ([9]; with n-Docosanol, 3.3 mM): 6 µM; EC90 ([9]; with n-Docosanol, 10 mM): 4 µM; EC90 ([9]; with n-Docosanol, 30 mM): 2 µM; reduction of ACV EC50's and EC90's ([10]; CMV, n-docosanol concentrations of 10-30 mM): 90%; EC50 ([10]; Medium Only): 30 µM; EC50 ([10]; with Pluronic F-68): 30 µM; EC50 ([10]; with n-Docosanol, 3.3 mM): 8 µM; EC50 ([10]; with n-Docosanol, 10 mM): 2 µM; EC50 ([10]; with n-Docosanol, 30 mM): 2 µM; EC90 ([10]; Medium Only): 250 µM; EC90 ([10]; with Pluronic F-68): 250 µM; EC90 ([10]; with n-Docosanol, 3.3 mM): 35 µM; EC90 ([10]; with n-Docosanol, 10 mM): 25 µM; EC90 ([10]; with n-Docosanol, 30 mM): 6 µM; sensitivity of vaccinia virus to ACV (in words) [11]: insensitive; cellular toxicity, such as cytoplasmic vacuoles [12]: not observed; steady state acyclovir plasma concentration ([13]; acyclovir 5 mg/kg by 1-hour infusions every 8 hours): approximately 10 μg/ml; maximum average acyclovir plasma concentration ([13]; oral acyclovir 500 mg 5 times a day): approximately 0.7 μg/ml; enhancement of ACV activity ([3]; 3 mM n-docosanol): 25 fold; EC50 ([3]; 44 h, read-out: ACV 50% effective concentration (EC50), plaque formation, medium alone, 50 PFU HSV-2, scored 44 hours): 0.005 mM; EC50 ([3]; read-out: ACV EC50, plaque formation): 0.0002 mM

Q: With `CCCCCCCC/C=C/CCCCCCCCCCCCO` [brassidyl alcohol, trans-13-docosen-1-ol] as the compound, how does the “mean duration of the HSV-2 active infection, five women” value [14] read?
A: 3 to 4 days

Q: And the inhibition at 1000 µM [15]?
A: 27%

Q: What about the inhibition at 2000 µM [15] of the same compound?
A: 35%

Q: What about the inhibition at 4000 µM [15] of the same compound?
A: 44%

Q: What about the inhibition at 8000 µM [15] of the same compound?
A: 48%
